Test results taken from patent publication US9550811B2, “Peptide scaffold design” (BIONOR IMMUNO AS, priority 2010, dated 2017).
Where no end group is shown, it is not given here. [ ]: non-standard residue; d: D form. Cit = NC(=O)NCCC[C@H](N)C(=O)O; Nle = CCCC[C@H](N)C(=O)O

Columns and labels:
Assay in all cases: REVEAL binding assay
Settings in all cases: score as percentage of the signal generated by the positive control peptide
HLA-B40 = tested on: HLA-B40
Procedure, shortened: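 Read-out: presence or absence of natively folded MHC–peptide complex. Values expressed as % of positive-control epitope signal per allele, plus putative pass/fail; weaker-binding intermediate control included.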

HLA-B8 = tested on: HLA-B8
HLA-B14 = tested on: HLA-B14
Source text: (§2) HLA-A1, HLA-A2, HLA-A3, HLA-A11, HLA-A24, HLA-A29, HLA-B7, HLA-B8, HLA-B14, HLA-B15, HLA-B27, HLA-B35, HLA-B40.
(§3) The REVEAL™ binding assay determined the ability of each candidate peptide to bind to one or more MHC class I alleles and stabilizing the MHC-peptide complex. […] Detection is based on the presence or absence of the native conformation of the MHC-peptide complex. Each peptide is given a score relative to the positive control peptide, which is a known T cell epitope.

HLA-A1 = tested on: HLA-A1
Procedure: (§4) Binding properties to HLA for the ninemers listed in table 6 were tested for the following HLA-classes:
as §2, §3

HLA-B15 = tested on: HLA-B15
Source text: as §2, §3

HLA-B35 = tested on: HLA-B35
HLA-A3 = HLA-A3 (Homo sapiens, UniProt P04439)
Sequence of HLA-A3 (P04439 25-299): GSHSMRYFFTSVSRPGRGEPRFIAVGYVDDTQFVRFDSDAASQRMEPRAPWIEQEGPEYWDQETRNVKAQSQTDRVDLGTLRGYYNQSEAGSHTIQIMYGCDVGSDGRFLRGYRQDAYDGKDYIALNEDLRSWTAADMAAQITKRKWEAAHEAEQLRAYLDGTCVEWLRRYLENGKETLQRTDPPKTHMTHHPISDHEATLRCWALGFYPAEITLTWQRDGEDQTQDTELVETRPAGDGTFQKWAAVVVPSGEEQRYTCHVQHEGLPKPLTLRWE
Sequence of HLA-A3 (P61769 21-119, further chain): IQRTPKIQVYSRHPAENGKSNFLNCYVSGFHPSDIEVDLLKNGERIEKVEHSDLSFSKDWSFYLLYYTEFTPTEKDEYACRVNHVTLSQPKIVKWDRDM
Procedure, shortened: (§1)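 Synthetic nonamer peptides were tested for their ability to bind and stabilize MHC class I–peptide complexes, detected by the native conformation of the complex. Each peptide is scored relative to a positive-control known T-cell epitope.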

HLA-A2 = HLA-A2 (Homo sapiens, UniProt P04439, D140Y/D185E/D98H/E176V/E277Q/G131W/G231S/I119V/I121R/I166T/I218V/N151K/N90K/P208A/P217A/Q86G/Q94H/R138H/R169H)
Procedure, shortened: as §1

HLA-B27 = HLA-B27 (Homo sapiens, UniProt P01889, D138H/D201E/E176V/E204Q/G107R/H137Y/K202T/N104T/N87E/Q56L/Q94K/R106L/R155S/R180L/S101D/S121N/S48T/Y140D/Y33H/Y91C)
Procedure, shortened: as §1

HLA-B7 = HLA-B7 (Homo sapiens, UniProt P01889)
Sequence of HLA-B7 (P61769 21-119): as the sequence (P61769 21-119, further chain) above
Sequence of HLA-B7 (P01889 25-299): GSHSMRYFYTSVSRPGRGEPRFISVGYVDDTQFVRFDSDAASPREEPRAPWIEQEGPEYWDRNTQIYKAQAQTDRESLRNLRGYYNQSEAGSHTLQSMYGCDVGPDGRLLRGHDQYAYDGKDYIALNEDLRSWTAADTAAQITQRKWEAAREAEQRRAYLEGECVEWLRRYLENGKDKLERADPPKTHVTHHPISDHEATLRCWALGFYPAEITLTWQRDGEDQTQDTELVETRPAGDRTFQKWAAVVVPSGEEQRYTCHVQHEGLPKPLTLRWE
Procedure, shortened: as §1

HLA-A11 = HLA-A11 (Homo sapiens, UniProt P04439, A114D/F33Y/S129P)
Procedure, shortened: as §1

HLA-A29 = tested on: HLA-A29
HLA-A24 = tested on: HLA-A24
Procedure: as §4, §2, §3

[Cit]IGVRAT[Cit]R
REVEAL binding score, HLA-type B40 (HLA-B40): 18.45%
REVEAL binding score, HLA-type B8 (HLA-B8): 12.09%
REVEAL binding score, HLA-type B14 (HLA-B14): 0.17%
REVEAL binding score, HLA-type A1 (HLA-A1): 19.68%
REVEAL binding score, HLA-type B15 (HLA-B15): 14.45%
REVEAL binding score, HLA-type B35 (HLA-B35): 8.51%
REVEAL binding score, HLA-type A3 (HLA-A3): 25.16%
REVEAL binding score, HLA-type A2 (HLA-A2): 8.17%
REVEAL binding score, HLA-type B27 (HLA-B27): 0.86%
REVEAL binding score, HLA-type B7 (HLA-B7): 14.59%
REVEAL binding score, HLA-type A11 (HLA-A11): 8.27%
REVEAL binding score, HLA-type A29 (HLA-A29): 16.67%
REVEAL binding score, HLA-type A24 (HLA-A24): 0.50%

AEL[Nle]GYIPL
REVEAL binding score, HLA-type B40 (HLA-B40): 72.73%
REVEAL binding score, HLA-type B8 (HLA-B8): 14.74%
REVEAL binding score, HLA-type B14 (HLA-B14): 0.12%
REVEAL binding score, HLA-type A1 (HLA-A1): 16.63%
REVEAL binding score, HLA-type B15 (HLA-B15): 10.20%
REVEAL binding score, HLA-type B35 (HLA-B35): 1.91%
REVEAL binding score, HLA-type A3 (HLA-A3): 3.05%
REVEAL binding score, HLA-type A2 (HLA-A2): 7.49%
REVEAL binding score, HLA-type B27 (HLA-B27): 0.77%
REVEAL binding score, HLA-type B7 (HLA-B7): 1.11%
REVEAL binding score, HLA-type A11 (HLA-A11): 3.61%
REVEAL binding score, HLA-type A29 (HLA-A29): 20.78%
REVEAL binding score, HLA-type A24 (HLA-A24): 0.37%

GQIVGGVYL
REVEAL binding score, HLA-type B40 (HLA-B40): 24.20%
REVEAL binding score, HLA-type B8 (HLA-B8): 14.53%
REVEAL binding score, HLA-type B14 (HLA-B14): 0.37%
REVEAL binding score, HLA-type A1 (HLA-A1): 15.07%
REVEAL binding score, HLA-type B15 (HLA-B15): 182.45%
REVEAL binding score, HLA-type B35 (HLA-B35): 3.24%
REVEAL binding score, HLA-type A3 (HLA-A3): 4.80%
REVEAL binding score, HLA-type A2 (HLA-A2): 55.85%
REVEAL binding score, HLA-type B27 (HLA-B27): 1.01%
REVEAL binding score, HLA-type B7 (HLA-B7): 6.56%
REVEAL binding score, HLA-type A11 (HLA-A11): 4.46%
REVEAL binding score, HLA-type A29 (HLA-A29): 13.73%
REVEAL binding score, HLA-type A24 (HLA-A24): 0.50%

IPLVGAPLG
REVEAL binding score, HLA-type B40 (HLA-B40): 41.10%
REVEAL binding score, HLA-type B8 (HLA-B8): 17.87%
REVEAL binding score, HLA-type B14 (HLA-B14): 0.03%
REVEAL binding score, HLA-type A1 (HLA-A1): 13.28%
REVEAL binding score, HLA-type B15 (HLA-B15): 10.01%
REVEAL binding score, HLA-type B35 (HLA-B35): 30.74%
REVEAL binding score, HLA-type A3 (HLA-A3): 2.59%
REVEAL binding score, HLA-type A2 (HLA-A2): 4.32%
REVEAL binding score, HLA-type B27 (HLA-B27): 0.35%
REVEAL binding score, HLA-type B7 (HLA-B7): 2.34%
REVEAL binding score, HLA-type A11 (HLA-A11): 2.05%
REVEAL binding score, HLA-type A29 (HLA-A29): 26.79%
REVEAL binding score, HLA-type A24 (HLA-A24): 0.60%

[Nle]GYIPLIGA
REVEAL binding score, HLA-type B40 (HLA-B40): 60.84%
REVEAL binding score, HLA-type B8 (HLA-B8): 21.35%
REVEAL binding score, HLA-type B14 (HLA-B14): 0.29%
REVEAL binding score, HLA-type A1 (HLA-A1): 17.87%
REVEAL binding score, HLA-type B15 (HLA-B15): 11.07%
REVEAL binding score, HLA-type B35 (HLA-B35): 5.89%
REVEAL binding score, HLA-type A3 (HLA-A3): 3.13%
REVEAL binding score, HLA-type A2 (HLA-A2): 10.43%
REVEAL binding score, HLA-type B27 (HLA-B27): 1.42%
REVEAL binding score, HLA-type B7 (HLA-B7): 1.78%
REVEAL binding score, HLA-type A11 (HLA-A11): 7.27%
REVEAL binding score, HLA-type A29 (HLA-A29): 27.85%
REVEAL binding score, HLA-type A24 (HLA-A24): 1.33%

EL[Nle]GYIPLI
REVEAL binding score, HLA-type B40 (HLA-B40): 43.10%
REVEAL binding score, HLA-type B8 (HLA-B8): 17.05%
REVEAL binding score, HLA-type B14 (HLA-B14): 0.14%
REVEAL binding score, HLA-type A1 (HLA-A1): 18.29%
REVEAL binding score, HLA-type B15 (HLA-B15): 8.91%
REVEAL binding score, HLA-type B35 (HLA-B35): 2.55%
REVEAL binding score, HLA-type A3 (HLA-A3): 4.54%
REVEAL binding score, HLA-type A2 (HLA-A2): 97.87%
REVEAL binding score, HLA-type B27 (HLA-B27): 0.67%
REVEAL binding score, HLA-type B7 (HLA-B7): 0.68%
REVEAL binding score, HLA-type A11 (HLA-A11): 3.21%
REVEAL binding score, HLA-type A29 (HLA-A29): 20.93%
REVEAL binding score, HLA-type A24 (HLA-A24): 0.92%

RNLGRVIET
REVEAL binding score, HLA-type B40 (HLA-B40): 27.57%
REVEAL binding score, HLA-type B8 (HLA-B8): 15.51%
REVEAL binding score, HLA-type B14 (HLA-B14): 0.26%
REVEAL binding score, HLA-type A1 (HLA-A1): 15.93%
REVEAL binding score, HLA-type B15 (HLA-B15): 8.84%
REVEAL binding score, HLA-type B35 (HLA-B35): 2.34%
REVEAL binding score, HLA-type A3 (HLA-A3): 5.52%
REVEAL binding score, HLA-type A2 (HLA-A2): 5.96%
REVEAL binding score, HLA-type B27 (HLA-B27): 0.91%
REVEAL binding score, HLA-type B7 (HLA-B7): 0.71%
REVEAL binding score, HLA-type A11 (HLA-A11): 13.68%
REVEAL binding score, HLA-type A29 (HLA-A29): 15.13%
REVEAL binding score, HLA-type A24 (HLA-A24): 0.51%

GGQIVGGVY
REVEAL binding score, HLA-type B40 (HLA-B40): 30.75%
REVEAL binding score, HLA-type B8 (HLA-B8): 14.66%
REVEAL binding score, HLA-type B14 (HLA-B14): 0.32%
REVEAL binding score, HLA-type A1 (HLA-A1): 13.97%
REVEAL binding score, HLA-type B15 (HLA-B15): 110.34%
REVEAL binding score, HLA-type B35 (HLA-B35): 0.54%
REVEAL binding score, HLA-type A3 (HLA-A3): 3.47%
REVEAL binding score, HLA-type A2 (HLA-A2): 6.88%
REVEAL binding score, HLA-type B27 (HLA-B27): 0.66%
REVEAL binding score, HLA-type B7 (HLA-B7): 3.99%
REVEAL binding score, HLA-type A11 (HLA-A11): 2.71%
REVEAL binding score, HLA-type A29 (HLA-A29): 20.46%
REVEAL binding score, HLA-type A24 (HLA-A24): 1.78%

YVTGNIPGS
REVEAL binding score, HLA-type B40 (HLA-B40): 88.29%
REVEAL binding score, HLA-type B8 (HLA-B8): 12.40%
REVEAL binding score, HLA-type B14 (HLA-B14): 0.76%
REVEAL binding score, HLA-type A1 (HLA-A1): 13.33%
REVEAL binding score, HLA-type B15 (HLA-B15): 6.16%
REVEAL binding score, HLA-type B35 (HLA-B35): 4.42%
REVEAL binding score, HLA-type A3 (HLA-A3): 5.34%
REVEAL binding score, HLA-type A2 (HLA-A2): 6.88%
REVEAL binding score, HLA-type B27 (HLA-B27): 1.98%
REVEAL binding score, HLA-type B7 (HLA-B7): 2.70%
REVEAL binding score, HLA-type A11 (HLA-A11): 5.18%
REVEAL binding score, HLA-type A29 (HLA-A29): 10.29%
REVEAL binding score, HLA-type A24 (HLA-A24): 2.71%

YLPAVGAPI
REVEAL binding score, HLA-type B40 (HLA-B40): 64.34%
REVEAL binding score, HLA-type B8 (HLA-B8): 17.92%
REVEAL binding score, HLA-type B14 (HLA-B14): 0.12%
REVEAL binding score, HLA-type A1 (HLA-A1): 15.76%
REVEAL binding score, HLA-type B15 (HLA-B15): 49.63%
REVEAL binding score, HLA-type B35 (HLA-B35): 2.03%
REVEAL binding score, HLA-type A3 (HLA-A3): 2.58%
REVEAL binding score, HLA-type A2 (HLA-A2): 75.80%
REVEAL binding score, HLA-type B27 (HLA-B27): 0.51%
REVEAL binding score, HLA-type B7 (HLA-B7): 7.70%
REVEAL binding score, HLA-type A11 (HLA-A11): 3.07%
REVEAL binding score, HLA-type A29 (HLA-A29): 28.40%
REVEAL binding score, HLA-type A24 (HLA-A24): 4.65%

YIPLVGAPL
REVEAL binding score, HLA-type B40 (HLA-B40): 30.22%
REVEAL binding score, HLA-type B8 (HLA-B8): 33.10%
REVEAL binding score, HLA-type B14 (HLA-B14): 0.13%
REVEAL binding score, HLA-type A1 (HLA-A1): 21.80%
REVEAL binding score, HLA-type B15 (HLA-B15): 54.57%
REVEAL binding score, HLA-type B35 (HLA-B35): 99.81%
REVEAL binding score, HLA-type A3 (HLA-A3): 5.29%
REVEAL binding score, HLA-type A2 (HLA-A2): 35.00%
REVEAL binding score, HLA-type B27 (HLA-B27): 0.69%
REVEAL binding score, HLA-type B7 (HLA-B7): 41.87%
REVEAL binding score, HLA-type A11 (HLA-A11): 3.54%
REVEAL binding score, HLA-type A29 (HLA-A29): 31.09%
REVEAL binding score, HLA-type A24 (HLA-A24): 4.51%

GP[Cit]IGVRAT
REVEAL binding score, HLA-type B40 (HLA-B40): 19.61%
REVEAL binding score, HLA-type B8 (HLA-B8): 9.99%
REVEAL binding score, HLA-type B14 (HLA-B14): 0.13%
REVEAL binding score, HLA-type A1 (HLA-A1): 18.60%
REVEAL binding score, HLA-type B15 (HLA-B15): 7.29%
REVEAL binding score, HLA-type B35 (HLA-B35): 2.25%
REVEAL binding score, HLA-type A3 (HLA-A3): 3.48%
REVEAL binding score, HLA-type A2 (HLA-A2): 9.16%
REVEAL binding score, HLA-type B27 (HLA-B27): 0.59%
REVEAL binding score, HLA-type B7 (HLA-B7): 5.38%
REVEAL binding score, HLA-type A11 (HLA-A11): 2.72%
REVEAL binding score, HLA-type A29 (HLA-A29): 11.88%
REVEAL binding score, HLA-type A24 (HLA-A24): 0.16%
